Measurements from US20100022542A1, “COMPOUNDS EXHIBITING THROMBOPOIETIN RECEPTOR AGONISM” (Shionogi & Co., Ltd., priority 2000, published 2010).

Molecular target: T1, human TPO receptor (hTPOR) (Homo sapiens, UniProt P40238)
T1 construct: expressed in transfected cells; host or cells: BaF-B03 (murine IL-3 dependent cell line)
T1 sequence (P40238 26-635): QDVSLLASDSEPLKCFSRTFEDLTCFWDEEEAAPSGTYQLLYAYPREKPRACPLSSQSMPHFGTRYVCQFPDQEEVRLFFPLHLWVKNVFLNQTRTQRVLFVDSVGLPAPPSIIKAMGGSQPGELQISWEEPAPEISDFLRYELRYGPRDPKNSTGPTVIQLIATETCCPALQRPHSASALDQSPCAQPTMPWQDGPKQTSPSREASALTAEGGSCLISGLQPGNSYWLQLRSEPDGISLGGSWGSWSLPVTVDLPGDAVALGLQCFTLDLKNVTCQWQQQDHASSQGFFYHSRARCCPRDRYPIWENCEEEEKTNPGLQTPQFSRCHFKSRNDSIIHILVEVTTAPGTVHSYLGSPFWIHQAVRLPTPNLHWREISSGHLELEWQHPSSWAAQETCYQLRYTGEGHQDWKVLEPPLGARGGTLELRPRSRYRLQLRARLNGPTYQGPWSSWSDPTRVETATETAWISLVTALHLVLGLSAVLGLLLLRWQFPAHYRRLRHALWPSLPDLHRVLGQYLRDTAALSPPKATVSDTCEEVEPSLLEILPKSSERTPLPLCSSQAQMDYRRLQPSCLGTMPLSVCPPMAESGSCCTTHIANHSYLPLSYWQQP
Assay: Proliferation of TPO dependent BaF/hTPOR cells, WST-1, thrombopoietic activity ED50 (Test Example 3)
Type: cell-based
Conditions: 20 h incubation then WST-1 4 h, absorbance at 450 nm
Description: FIG. 2: The chart represents proliferation of the human TPO dependent cells bearing human TPO receptors by the present invention compound, wherein the x-axis is concentration of the present invention compound, and the y-axis is the absorbance as an indicator of cell proliferation. Open circles indicate a response of human TPO, and closed circles indicate a response of the compound (B-1).
The TPO dependent BaF/hTPOR cell line which was established by introducing human TPO receptor (hTPOR) into BaF-B03 cells according to Collins et al (J. Cell. Physiol., 137:293-298 (1988)) was used to test the thrombopoietic activity of the present compound. The DNA sequences and encoded peptide sequences for human hTPOR have been described by Vigon et al (Proc. Natl. Acad. Sci. USA, 89:5640-5644 (1992)). TPO dose not have any ability to support proliferation of interleukin-3 dependent parental cell line BaF-B03. BAF/hTPOR cells were maintained in RPMI medium and WEHI-3B conditioned medium as a source of murine interleukin-3 (IL-3). These cells were washed and resuspended in RPMI medium without a source of murine IL-3 and seeded into each well of 96-well microtiter plates at a density of 5×10^4 cells per well in the absence or presence of various concentration of hTPO or the present compound. After incubation at 37° C. for 20 hours in the 5% CO2 incubator, 10% WST-1 reagent (Takara Biomedicals, Japan) was added to each wells and the cells were further incubated for 4 hours. Effect of the present compound on the growth of BAF/mTPOR cell line which was established by introducing murine TPO receptor (mTPOR) into BAF-B03 cells is shown in FIG. 3. Table 8 exemplifies the ED50 for tested compounds of the present invention, wherein the ED50 is the half concentration of the concentration showing the maximum thrombopoietic activity.

In the case of `CCOC(=O)/C=C/c1ccc(C(=O)Nc2nc(-c3ccc(Cl)c(Cl)c3)cs2)cc1` [Compound A-3], the EC50 is reported as 0.218 µM.
In the case of `O=C(O)/C=C/c1ccc(C(=O)Nc2nc(-c3ccc(Cl)c(Cl)c3)cs2)cc1` [Compound A-4], the EC50 is reported as 0.124 µM.
In the case of `CCOC(=O)C(=Cc1ccc(C(=O)Nc2nc(-c3ccc(Cl)c(Cl)c3)cs2)cc1)CC` [Compound A-5], the EC50 is reported as 0.984 µM.
`CCC(=Cc1ccc(C(=O)Nc2nc(-c3ccc(Cl)c(Cl)c3)cs2)cc1)C(=O)O` [Compound A-6] showed an EC50 of 0.248 µM.
Work on `CC(C(=O)O)=C(C)c1ccc(C(=O)Nc2nc(-c3ccc(Cl)c(Cl)c3)cs2)cc1` [Compound A-8] yielded an EC50 of 0.529 µM.
Compound `CCOC(=O)C(C)=Cc1ccc(C(=O)Nc2nc(-c3ccc(F)c(F)c3)cs2)cc1` [Compound A-9] has an EC50 of 0.504 µM.
`CC(=Cc1ccc(C(=O)Nc2nc(-c3ccc(F)c(F)c3)cs2)cc1)C(=O)O` [Compound A-10] showed an EC50 of 0.365 µM.
Compound `CCOC(=O)C(Cl)=Cc1ccc(C(=O)Nc2nc(-c3ccc(Cl)c(Cl)c3)cs2)cc1` [Compound A-11] has an EC50 of 0.0335 µM.
With `O=C(O)/C(Cl)=C/c1ccc(C(=O)Nc2nc(-c3ccc(Cl)c(Cl)c3)cs2)cc1` [Compound A-14] the EC50 was 0.017 µM.
For `C/C(=C\c1ccc(C(=O)Nc2nc(-c3cccc(F)c3)cs2)cc1)C(=O)O` [Compound A-18], the EC50 was 0.132 µM.
In the case of `CCOC(=O)/C(C)=C/c1ccc(C(=O)Nc2nc(-c3cccc(OC(F)(F)F)c3)cs2)cc1` [Compound A-19], the EC50 is reported as 0.17 µM.
`C/C(=C\c1ccc(C(=O)Nc2nc(-c3cccc(OC(F)(F)F)c3)cs2)cc1)C(=O)O` [Compound A-20] was tested, and the EC50 was 0.61 µM.
For `CCOC(=O)/C(C)=C/c1ccc(C(=O)Nc2nc(-c3ccc(F)cc3)cs2)cc1` [Compound A-23], the EC50 was 0.337 µM.
For `C/C(=C\c1ccc(C(=O)Nc2nc(-c3ccc(F)cc3)cs2)cc1)C(=O)O` [Compound A-24], the EC50 was 0.288 µM.
`CCOC(=O)/C(C)=C/c1ccc(C(=O)Nc2nc(-c3ccc(C(F)(F)F)cc3)cs2)cc1` [Compound A-25] gave an EC50 of 0.15 µM.
`C/C(=C\c1ccc(C(=O)Nc2nc(-c3ccc(C(F)(F)F)cc3)cs2)cc1)C(=O)O` [Compound A-26] gave an EC50 of 0.098 µM.
In the case of `CCOC(=O)/C(C)=C/c1ccc(C(=O)Nc2nc(-c3cccc(C(F)(F)F)c3)cs2)cc1` [Compound A-27], the EC50 is reported as 0.193 µM.
Compound `C/C(=C\c1ccc(C(=O)Nc2nc(-c3cccc(C(F)(F)F)c3)cs2)cc1)C(=O)O` [Compound A-28] has an EC50 of 0.099 µM.
Work on `CCOC(=O)/C(Cl)=C/c1ccc(C(=O)Nc2nc(-c3cccc(F)c3)cs2)cc1` [Compound A-29] yielded an EC50 of 0.289 µM.
`O=C(O)/C(Cl)=C/c1ccc(C(=O)Nc2nc(-c3cccc(F)c3)cs2)cc1` [Compound A-30] showed an EC50 of 0.274 µM.
`CCOC(=O)/C(Cl)=C/c1ccc(C(=O)Nc2nc(-c3cccc(OC(F)(F)F)c3)cs2)cc1` [Compound A-31] gave an EC50 of 0.056 µM.
In the case of `O=C(O)/C(Cl)=C/c1ccc(C(=O)Nc2nc(-c3cccc(OC(F)(F)F)c3)cs2)cc1` [Compound A-32], the EC50 is reported as 0.04 µM.
`CCOC(=O)/C(Cl)=C/c1ccc(C(=O)Nc2nc(-c3ccc(F)c(F)c3)cs2)cc1` [Compound A-35] gave an EC50 of 0.096 µM.
Work on `O=C(O)/C(Cl)=C/c1ccc(C(=O)Nc2nc(-c3ccc(F)c(F)c3)cs2)cc1` [Compound A-36] yielded an EC50 of 0.095 µM.
For `CCOC(=O)/C(Cl)=C/c1ccc(C(=O)Nc2nc(-c3ccc(F)cc3)cs2)cc1` [Compound A-37], the EC50 was 0.096 µM.
Compound `O=C(O)/C(Cl)=C/c1ccc(C(=O)Nc2nc(-c3ccc(F)cc3)cs2)cc1` [Compound A-38] has an EC50 of 0.245 µM.
Work on `CCOC(=O)/C(Cl)=C/c1ccc(C(=O)Nc2nc(-c3ccc(C(F)(F)F)cc3)cs2)cc1` [Compound A-39] yielded an EC50 of 0.044 µM.
With `O=C(O)/C(Cl)=C/c1ccc(C(=O)Nc2nc(-c3ccc(C(F)(F)F)cc3)cs2)cc1` [Compound A-40] the EC50 was 0.047 µM.
Compound `CCOC(=O)/C(Cl)=C/c1ccc(C(=O)Nc2nc(-c3cccc(C(F)(F)F)c3)cs2)cc1` [Compound A-41] has an EC50 of 0.039 µM.
With `O=C(O)/C(Cl)=C/c1ccc(C(=O)Nc2nc(-c3cccc(C(F)(F)F)c3)cs2)cc1` [Compound A-42] the EC50 was 0.05 µM.
Work on `O=C(O)/C(F)=C/c1ccc(C(=O)Nc2nc(-c3ccc(Cl)c(Cl)c3)cs2)cc1` [Compound A-43] yielded an EC50 of 0.071 µM.
Compound `O=C(O)/C(F)=C/c1ccc(C(=O)Nc2nc(-c3cccc(C(F)(F)F)c3)cs2)cc1` [Compound A-44] has an EC50 of 0.227 µM.
Compound `O=C(O)C(F)=Cc1ccc(C(=O)Nc2nc(-c3cccc(OC(F)(F)F)c3)cs2)cc1` [Compound A-45] has an EC50 of 0.203 µM.
With `O=C(O)C(F)=Cc1ccc(C(=O)Nc2nc(-c3ccc(C(F)(F)F)cc3)cs2)cc1` [Compound A-46] the EC50 was 0.263 µM.
Work on `O=C(O)/C(Cl)=C/c1ccc(C(=O)Nc2nc(-c3ccc(-c4ccccc4)cc3)cs2)cc1` [Compound A-47] yielded an EC50 of 0.512 µM.
With `CC(C)(C)c1ccc(-c2csc(NC(=O)c3ccc(/C=C(\Cl)C(=O)O)cc3)n2)cc1` [Compound A-48] the EC50 was 0.473 µM.
With `CCCCCc1ccc(-c2csc(NC(=O)c3ccc(/C=C(\Cl)C(=O)O)cc3)n2)cc1` [Compound A-49] the EC50 was 0.116 µM.
With `O=C(O)/C(Cl)=C/c1ccc(C(=O)Nc2nc(-c3ccccc3F)cs2)cc1` [Compound A-50] the EC50 was 0.113 µM.
Work on `O=C(O)/C(Cl)=C/c1ccc(C(=O)Nc2nc(-c3c(F)cccc3F)cs2)cc1` [Compound A-51] yielded an EC50 of 0.568 µM.
In the case of `COc1cccc(-c2csc(NC(=O)c3ccc(/C=C(\Cl)C(=O)O)cc3)n2)c1` [Compound A-52], the EC50 is reported as 0.425 µM.
`O=C(O)/C(Cl)=C/c1ccc(C(=O)Nc2nc(-c3cccc(-c4ccccc4)c3)cs2)cc1` [Compound A-54] was tested, and the EC50 was 0.065 µM.
For `CCCCc1cccc(-c2csc(NC(=O)c3ccc(/C=C(\Cl)C(=O)O)cc3)n2)c1` [Compound A-55], the EC50 was 0.037 µM.
Compound `O=C(O)/C(Cl)=C/c1ccc(C(=O)Nc2nc(-c3ccc(F)cc3F)cs2)cc1` [Compound A-56] has an EC50 of 0.066 µM.
`O=C(O)/C(Cl)=C/c1ccc(C(=O)Nc2nc(-c3cccc(C(F)(F)F)c3F)cs2)cc1` [Compound A-57] showed an EC50 of 0.019 µM.
With `O=C(O)/C(Cl)=C/c1ccc(C(=O)Nc2nc(-c3cc(F)ccc3F)cs2)cc1` [Compound A-58] the EC50 was 0.497 µM.
For `CCCCOc1ccc(-c2csc(NC(=O)c3ccc(/C=C(\Cl)C(=O)O)cc3)n2)cc1` [Compound A-59], the EC50 was 0.164 µM.
Work on `O=C(O)/C(Cl)=C/c1ccc(C(=O)Nc2nc(-c3ccc(C(F)(F)F)cc3F)cs2)cc1` [Compound A-60] yielded an EC50 of 0.023 µM.
`COc1ccc(-c2csc(NC(=O)c3ccc(/C=C(\Cl)C(=O)O)cc3)n2)c(F)c1` [Compound A-61] was tested, and the EC50 was 0.207 µM.
Compound `O=C(O)/C(Cl)=C/c1ccc(C(=O)Nc2nc(-c3cc(F)c(F)cc3F)cs2)cc1` [Compound A-62] has an EC50 of 0.101 µM.
`O=C(O)/C(Cl)=C/c1ccc(C(=O)Nc2nc(-c3ccc(F)c(Br)c3)cs2)cc1` [Compound A-63] gave an EC50 of 0.025 µM.
For `CC(C)Cc1ccc(-c2csc(NC(=O)c3ccc(/C=C(\Cl)C(=O)O)cc3)n2)cc1` [Compound A-64], the EC50 was 0.204 µM.
For `O=C(O)/C(Cl)=C/c1ccc(C(=O)Nc2nc(-c3cc(C(F)(F)F)cc(C(F)(F)F)c3)cs2)cc1` [Compound A-65], the EC50 was 0.028 µM.
Compound `Cn1cc(-c2csc(NC(=O)c3ccc(/C=C(\Cl)C(=O)O)cc3)n2)c2ccccc21` [Compound A-66] has an EC50 of 0.211 µM.
Work on `O=C(O)/C(F)=C/c1ccc(C(=O)Nc2nc(-c3ccc(F)cc3)cs2)cc1` [Compound A-68] yielded an EC50 of 0.222 µM.
In the case of `O=C(O)/C(Cl)=C/c1ccc(C(=O)Nc2nc(-c3ccc(Br)cc3F)cs2)cc1` [Compound A-69], the EC50 is reported as 0.071 µM.
Work on `Cc1ccc(-c2csc(NC(=O)c3ccc(/C=C(\Cl)C(=O)O)cc3)n2)c(F)c1` [Compound A-70] yielded an EC50 of 0.089 µM.
For `O=C(O)/C(Cl)=C/c1ccc(C(=O)Nc2nc(-c3cccc(F)c3F)cs2)cc1` [Compound A-72], the EC50 was 0.119 µM.
`O=C(O)/C(Cl)=C/c1ccc(C(=O)Nc2nc(-c3ccc4c(c3)CCC4)cs2)cc1` [Compound A-73] gave an EC50 of 0.075 µM.
`O=C(O)/C(Cl)=C/c1ccc(C(=O)Nc2nc(-c3ccc4c(c3)CCO4)cs2)cc1` [Compound A-74] gave an EC50 of 0.472 µM.
For `O=C(O)/C(Cl)=C/c1ccc(C(=O)Nc2nc(-c3ccc(F)c(Cl)c3)cs2)cc1` [Compound A-75], the EC50 was 0.073 µM.
